{"source": "patent US20100041089A1", "about": "“IMPROVED METHOD FOR DETECTING CHEMICAL […]” (priority 2006, published 2010)", "system": "yeast genes (expressed mRNA)", "assay": "DNA chip measurement of expressed mRNA of yeast genes after culture with a toxic chemical substance", "format": "cell-based, Saccharomyces cerevisiae S288C", "conditions": "for The level of expressed mRNA in the presence of chemical substance/The level of expressed mRNA in the absence of chemical substance: cultured two hours with substance; for level of expressed mRNA in the presence of chemical substance / level in the absence of chemical substance: cultured two hours with the chemical substance", "protocol": "Yeast (Saccharomyces cerevisiae S288C (a SUC2mal mel gap2 CUP1)) were cultured at 25° C. on YPD medium (yeast extract 1%, polypeptone 2%, glucose 2%). One of toxic chemical substances was added to the cell at logarithmic growth phase, and the cell was further cultured for two hours. Cell was cultured without any chemical substance in the same condition, and was used as a control. Concentrations of the chemical substances were defined to inhibit the growth of the yeast but not lead to death.\nAfter the completion of cultivation, the culture was centrifuged to collect the cells. To the cells, sodium acetate buffer (50 mM sodium acetate, 10 mM EDTA, 1% SDS) was added, and the mixture was shaken at 65° C. for five minutes, followed by returning to room temperature, and obtaining the supernatant, which procedure was repeated two times. To the supernatant, ½ amount of a solution of phenol/chloroform (1:1) was added, and the mixture was centrifuged to give a supernatant, an equal amount of chloroform was added, and the mixture was centrifuged to give a supernatant. To the supernatant, an equal amount of isopropanol containing 0.3 M sodium acetate was added, and the mixture was allowed to stand at room temperature for 30 minutes, after which the mixture was centrifuged to give sediment of the whole RNAs. Seventy % ethanol was added to the sediment, and the mixture was again centrifuged to give sediment, which was then dried and dissolved in water. mRNA was isolated from the whole RNAs as followings. In view of the fact that a poly A chain is attached to the 3′ terminus of mRNA, a polynucleotide having a poly T structure which was immobilized on the surface of latex beads was used to trap the mRNA, and then the mRNA was washed and eluted with spine column (Oligotex-dT30<Super>mRNA Purification Kit, Takara). Reverse transcription of the mRNA was conducted with a reverse transcriptase (Super Script II Reverse Transcriptase; catalogue No. 18064-014, GibcoBRL) using fluorescence-labeled nucleotides to give cDNAs that were introduced with Cy3-dUTP or Cy5-dUTP during the reverse transcription.\nThe labeled cDNAs were dissolved in TE buffer (10 mM Tris-HCl/1 mM EDTA, pH 8.0), and the solution was dropped on the DNA chip containing the whole genes of yeast (DNA Chip Research Inc. Japan) so that the cDNAs were hybridized on the DNA chip at 65° C. for over 12 hours. The fluoresces intensity of the DNA chip was read with a scanner, and the ratio relative to the fluorescence intensity resulting from the absence of chemical substance was estimated as the following, which is shown in Tables 1 to 9.\nIn the Tables, “Intensity” indicated in the rightmost column is a value of the level of expressed mRNA of each gene in control cells as divided by the average level of the expressions of the whole genes. A gene of which mRNA level is lower in control, and is higher in cases of addition of chemical substance, is especially useful in the detection of toxic substances.\nHere, when a ratio of an amount of mRNA expressed in the presence of the chemical substance to an amount of mRNA expressed in the absence of the chemical substance is two or more, then it is considered significant.", "data": [{"smiles": "Cl[C@H]1[C@H](Cl)[C@@H](Cl)[C@@H](Cl)[C@H](Cl)[C@H]1Cl", "note": "[(7), γ-Hexachlorocyclohexane]", "values": [{"measurement": "The level of expressed mRNA in the presence of chemical substance/The level of expressed mRNA in the absence of chemical substance", "setting": "yeast gene YJL151C", "value": 1.4}, {"measurement": "The level of expressed mRNA in the presence of chemical substance/The level of expressed mRNA in the absence of chemical substance", "setting": "yeast gene YJL152W", "value": 1.2}, {"measurement": "The level of expressed mRNA in the presence of chemical substance/The level of expressed mRNA in the absence of chemical substance", "setting": "yeast gene YJL161W", "value": 3.6}, {"measurement": "The level of expressed mRNA in the presence of chemical substance/The level of expressed mRNA in the absence of chemical substance", "setting": "yeast gene YJL171C", "value": 1.4}, {"measurement": "The level of expressed mRNA in the presence of chemical substance/The level of expressed mRNA in the absence of chemical substance", "setting": "yeast gene YJR008W", "value": 2.9}, {"measurement": "level of expressed mRNA in the presence of chemical substance / level in the absence of chemical substance", "setting": "yeast gene YJR030C", "value": 0.7}, {"measurement": "The level of expressed mRNA in the presence of chemical substance/The level of expressed mRNA in the absence of chemical substance", "setting": "yeast gene YJR054W", "value": 0.9}, {"measurement": "level of expressed mRNA in the presence of chemical substance / level in the absence of chemical substance", "setting": "yeast gene YKL051W", "value": 0.6}, {"measurement": "The level of expressed mRNA in the presence of chemical substance/The level of expressed mRNA in the absence of chemical substance", "setting": "yeast gene YKL071W", "value": 3.7}, {"measurement": "The level of expressed mRNA in the presence of chemical substance/The level of expressed mRNA in the absence of chemical substance", "setting": "yeast gene YKL086W", "value": 0.7}, {"measurement": "level of expressed mRNA in the presence of chemical substance / level in the absence of chemical substance", "setting": "yeast gene YKL097C", "value": 0.8}, {"measurement": "level of expressed mRNA in the presence of chemical substance / level in the absence of chemical substance", "setting": "yeast gene YKL100C", "value": 1.2}, {"measurement": "The level of expressed mRNA in the presence of chemical substance/The level of expressed mRNA in the absence of chemical substance", "setting": "yeast gene YKL151C", "value": 5.6}, {"measurement": "The level of expressed mRNA in the presence of chemical substance/The level of expressed mRNA in the absence of chemical substance", "setting": "yeast gene YKL153W", "value": 1.1}, {"measurement": "The level of expressed mRNA in the presence of chemical substance/The level of expressed mRNA in the absence of chemical substance", "setting": "yeast gene YKL195W", "value": 2.1}, {"measurement": "level of expressed mRNA in the presence of chemical substance / level in the absence of chemical substance", "setting": "yeast gene YKR040C", "value": 0.9}, {"measurement": "The level of expressed mRNA in the presence of chemical substance/The level of expressed mRNA in the absence of chemical substance", "setting": "yeast gene YKR091W", "value": 1.3}, {"measurement": "The level of expressed mRNA in the presence of chemical substance/The level of expressed mRNA in the absence of chemical substance", "setting": "yeast gene YLR054C", "value": 1.1}, {"measurement": "The level of expressed mRNA in the presence of chemical substance/The level of expressed mRNA in the absence of chemical substance", "setting": "yeast gene YLR149C", "value": 1.6}, {"measurement": "The level of expressed mRNA in the presence of chemical substance/The level of expressed mRNA in the absence of chemical substance", "setting": "yeast gene YLR152C", "value": 1.4}, {"measurement": "The level of expressed mRNA in the presence of chemical substance/The level of expressed mRNA in the absence of chemical substance", "setting": "yeast gene YLR194C", "value": 1.0}, {"measurement": "level of expressed mRNA in the presence of chemical substance / level in the absence of chemical substance", "setting": "yeast gene YLR226W", "value": 1.9}, {"measurement": "The level of expressed mRNA in the presence of chemical substance/The level of expressed mRNA in the absence of chemical substance", "setting": "yeast gene YLR324W", "value": 1.0}, {"measurement": "level of expressed mRNA in the presence of chemical substance / level in the absence of chemical substance", "setting": "yeast gene YLR338W", "value": 0.9}, {"measurement": "The level of expressed mRNA in the presence of chemical substance/The level of expressed mRNA in the absence of chemical substance", "setting": "yeast gene YLR350W", "value": 1.2}, {"measurement": "The level of expressed mRNA in the presence of chemical substance/The level of expressed mRNA in the absence of chemical substance", "setting": "yeast gene YLR387C", "value": 1.1}, {"measurement": "level of expressed mRNA in the presence of chemical substance / level in the absence of chemical substance", "setting": "yeast gene YLR392C", "value": 1.0}, {"measurement": "level of expressed mRNA in the presence of chemical substance / level in the absence of chemical substance", "setting": "yeast gene YLR415C", "value": 1.2}, {"measurement": "level of expressed mRNA in the presence of chemical substance / level in the absence of chemical substance", "setting": "yeast gene YLR427W", "value": 1.2}, {"measurement": "The level of expressed mRNA in the presence of chemical substance/The level of expressed mRNA in the absence of chemical substance", "setting": "yeast gene YLR460C", "value": 1.1}, {"measurement": "level of expressed mRNA in the presence of chemical substance / level in the absence of chemical substance", "setting": "yeast gene YML013W", "value": 1.3}, {"measurement": "level of expressed mRNA in the presence of chemical substance / level in the absence of chemical substance", "setting": "yeast gene YML029W", "value": 1.1}, {"measurement": "level of expressed mRNA in the presence of chemical substance / level in the absence of chemical substance", "setting": "yeast gene YML041C", "value": 1.4}, {"measurement": "level of expressed mRNA in the presence of chemical substance / level in the absence of chemical substance", "setting": "yeast gene YML079W", "value": 1.2}, {"measurement": "The level of expressed mRNA in the presence of chemical substance/The level of expressed mRNA in the absence of chemical substance", "setting": "yeast gene YML117W", "value": 0.7}, {"measurement": "The level of expressed mRNA in the presence of chemical substance/The level of expressed mRNA in the absence of chemical substance", "setting": "yeast gene YMR009W", "value": 1.9}, {"measurement": "The level of expressed mRNA in the presence of chemical substance/The level of expressed mRNA in the absence of chemical substance", "setting": "yeast gene YMR067C", "value": 1.2}, {"measurement": "level of expressed mRNA in the presence of chemical substance / level in the absence of chemical substance", "setting": "yeast gene YMR068W", "value": 1.5}, {"measurement": "level of expressed mRNA in the presence of chemical substance / level in the absence of chemical substance", "setting": "yeast gene YMR071C", "value": 1.8}, {"measurement": "The level of expressed mRNA in the presence of chemical substance/The level of expressed mRNA in the absence of chemical substance", "setting": "yeast gene YMR090W", "value": 2.7}, {"measurement": "The level of expressed mRNA in the presence of chemical substance/The level of expressed mRNA in the absence of chemical substance", "setting": "yeast gene YMR095C", "value": 1.2}, {"measurement": "The level of expressed mRNA in the presence of chemical substance/The level of expressed mRNA in the absence of chemical substance", "setting": "yeast gene YMR097C", "value": 1.5}, {"measurement": "The level of expressed mRNA in the presence of chemical substance/The level of expressed mRNA in the absence of chemical substance", "setting": "yeast gene YMR102C", "value": 1.8}, {"measurement": "The level of expressed mRNA in the presence of chemical substance/The level of expressed mRNA in the absence of chemical substance", "setting": "yeast gene YMR107W", "value": 1.2}, {"measurement": "level of expressed mRNA in the presence of chemical substance / level in the absence of chemical substance", "setting": "yeast gene YMR160W", "value": 1.0}, {"measurement": "The level of expressed mRNA in the presence of chemical substance/The level of expressed mRNA in the absence of chemical substance", "setting": "yeast gene YMR180C", "value": 1.7}, {"measurement": "The level of expressed mRNA in the presence of chemical substance/The level of expressed mRNA in the absence of chemical substance", "setting": "yeast gene YMR184W", "value": 1.6}, {"measurement": "The level of expressed mRNA in the presence of chemical substance/The level of expressed mRNA in the absence of chemical substance", "setting": "yeast gene YMR191W", "value": 2.0}, {"measurement": "The level of expressed mRNA in the presence of chemical substance/The level of expressed mRNA in the absence of chemical substance", "setting": "yeast gene YMR295C", "value": 1.3}, {"measurement": "The level of expressed mRNA in the presence of chemical substance/The level of expressed mRNA in the absence of chemical substance", "setting": "yeast gene YMR316W", "value": 2.0}, {"measurement": "level of expressed mRNA in the presence of chemical substance / level in the absence of chemical substance", "setting": "yeast gene YNL026W", "value": 1.5}, {"measurement": "The level of expressed mRNA in the presence of chemical substance/The level of expressed mRNA in the absence of chemical substance", "setting": "yeast gene YNL044W", "value": 0.9}]}]}
